Experimental data as given in ChEMBL document CHEMBL3046527, “NAD+-dependent DNA ligase (Rv3014c) from M. tuberculosis: Strategies for inhibitor design” (Med Chem Res, 2008).

Target: DNA ligase A (Mycobacterium tuberculosis, UniProt P9WNV1)
Experiment: Inhibition of Mycobacterium tuberculosis LigA

CC1(C)O[C@H]2OC([C@H](CCO)NCCCN[C@H](CCO)C3O[C@@H]4OC(C)(C)O[C@@H]4[C@H]3OCc3ccccc3)[C@H](OCc3ccccc3)[C@H]2O1 (some centres not stated)
IC50: 46.2 µM

CCN(CC)CCCC(C)Nc1ccnc2c1C=CC(Cl)C2 (configuration not stated)
IC50: 46 µM
